Measured values from ChEMBL document CHEMBL1201862, “PubChem BioAssay data set” (2004).
Structures can show the parent of a compound that is named as a salt.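 Following 48 hours of exposure in 96-well plates, responses at five concentrations were used to interpolate endpoints linearly. At the GI50, growth is halved.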 Calls of active or inactive are those of the source. No stated cut-off is given here; in the data, active = GI50 up to about 1.1 µM and inactive = higher.

Tests used:
Assay in all cases: NCI-60 cell line screen, 48 h
[1] = test system: RXF 393
[2] = test system: HT-29
[3] = test system: UACC-257
[4] = test system: XF498
[5] = test system: EKVX
[6] = test system: 786-0
[7] = test system: SK-MEL-2
[8] = test system: LOX IMVI
[9] = test system: SNB-19
[10] = test system: LXFL 529
[11] = test system: SN12C
[12] = test system: A549

Measured: GI50

CCCCC1(C(NC(=O)c2ccccc2Cl)c2ccncc2)C(=O)N(c2ccccc2)N(c2ccccc2)C1=O (configuration not stated)
inactive: [1] 37.6 µM | [2] 41.6 µM | [3] 29.7 µM | [4] 35.9 µM | [5] 58.3 µM | [6] 83.4 µM | [7] 50.9 µM | [8] 56.9 µM | [9] 77.6 µM | [10] 36.2 µM | [11] 94.4 µM | [12] 28.4 µM

CC(C)/C=C1\CCC(CN2CCCC2)C1=O (configuration not stated)
inactive: [1] 16 µM | [2] 9.73 µM | [3] 17.7 µM | [4] 16.6 µM | [5] 20.8 µM | [6] 2.01 µM | [7] 20.7 µM | [8] 19.9 µM | [9] > 41.6 µM | [10] 3.03 µM | [11] 18.7 µM | [12] 13.8 µM

CCc1cccc(C)c1NC(=O)CCc1nnc(SC)o1
inactive: [1] > 100 µM | [2] > 100 µM | [3] > 100 µM | [4] > 100 µM | [5] > 100 µM | [6] > 100 µM | [7] > 100 µM | [8] > 100 µM | [9] > 100 µM | [10] > 100 µM | [11] > 100 µM | [12] > 100 µM

COC(=O)C1=CCS(=O)(=O)C1
inactive: [1] > 100 µM | [2] > 100 µM | [3] > 100 µM | [4] > 100 µM | [5] > 100 µM | [6] > 100 µM | [7] > 100 µM | [8] > 100 µM | [9] > 100 µM | [10] > 100 µM | [11] > 100 µM | [12] > 100 µM

CC(C)C1C(=O)NC(CO)Cc2c[nH]c3c(C(c4c[nH]c5ccccc45)C(O)CO)ccc(c23)N1C (configuration not stated)
inactive: [1] > 100 µM | [2] > 100 µM | [3] > 100 µM | [4] 20 µM | [5] > 100 µM | [6] 62.8 µM | [7] > 100 µM | [8] > 100 µM | [9] > 100 µM | [10] 96.4 µM | [11] > 100 µM | [12] 23.5 µM

Cc1nccc2c1[nH]c1cc(O)ccc12 [HARMOL HYDROCHLORIDE]
inactive: [1] > 100 µM | [2] 56.5 µM | [3] 82.4 µM | [4] 28.4 µM | [5] 68.2 µM | [6] 55.2 µM | [7] > 100 µM | [8] 45.6 µM | [9] > 100 µM | [10] > 100 µM | [11] 76.4 µM | [12] 44.8 µM

COC(=O)N/N=C(/CCN1CCCC1)CC(c1ccccc1)c1c(O)c2ccccc2oc1=O (configuration not stated)
inactive: [1] > 100 µM | [2] > 100 µM | [3] > 100 µM | [4] 38.7 µM | [5] > 100 µM | [6] > 100 µM | [7] > 100 µM | [8] > 100 µM | [9] > 100 µM | [10] > 100 µM | [11] > 100 µM | [12] > 100 µM

CO[C@H]1CC[C@]2(C)C3=CC[C@@]4(C)C(CC[C@@H]4C(C)CC[C@@H](C)C(C)C)C(=CCC2C1)O3 (some centres not stated)
inactive: [1] > 25 µM | [2] > 25 µM | [3] > 25 µM | [4] > 25 µM | [5] > 25 µM | [6] > 25 µM | [7] > 25 µM | [8] > 25 µM | [9] > 25 µM | [10] > 25 µM | [11] > 25 µM | [12] > 25 µM

O=C1CCC2(c3ccc(F)cc3)Nc3cc(Cl)ccc3N12 (configuration not stated)
inactive: [1] 88.9 µM | [2] > 100 µM | [3] 90.4 µM | [4] 20.1 µM | [5] > 100 µM | [6] > 100 µM | [7] > 100 µM | [8] > 100 µM | [9] > 100 µM | [10] 65.5 µM | [11] > 100 µM | [12] 59.4 µM

CCOc1ccc(N(CC(=O)N2CC(=O)Nc3cc(C)c(C)cc32)C(C)=O)cc1
inactive: [1] > 100 µM | [2] > 100 µM | [3] > 100 µM | [4] > 100 µM | [5] > 100 µM | [6] > 100 µM | [7] > 100 µM | [8] > 100 µM | [9] > 100 µM | [10] > 100 µM | [11] > 100 µM | [12] > 100 µM

O=C(CC1(O)C(=O)Nc2c(Cl)ccc(Cl)c21)c1ccc(Cl)cc1Cl (configuration not stated)
inactive: [1] 25 µM | [2] 15.3 µM | [3] 11.6 µM | [4] 19.8 µM | [5] 21.6 µM | [6] 14.2 µM | [7] 21.3 µM | [8] 14.3 µM | [9] 32.2 µM | [10] 14.6 µM | [11] 16.6 µM | [12] 23.5 µM
